Source: patent publication US6562825B1, “Piperazine derivatives as modulators of chemokine receptor activity” (Astrazeneca UK Limited, priority 1999, dated 2003)
Where a name gives a salt, the structure may show the parent alone.

SMILES	melting point [°C]
CN(C)CCN(C)C(=O)COc1cc(Cl)ccc1C(=O)NCCN1CCN(Cc2ccc(Cl)c(Cl)c2)CC1	220 to 222
CN(C)C(=O)COc1cc(Cl)ccc1C(=O)NCCN1CCN(Cc2ccc(Cl)c(Cl)c2)CC1 (as salt: hydrochloride) [Example 3, 4-Chloro-N-{2-[4-(3,4-dichlorobenzyl)-1-piperazinyl]ethyl}-2-[2-(dimethylamino)-2-oxoethoxy]benzamide dihydrochloride]	162 to 163
CC(c1ccc(Cl)cc1)N1CCN(CCNC(=O)c2ccc(Cl)cc2OCC(=O)N(C)C)CC1 (stereo not drawn) (as salt: hydrochloride) [Example 9, 4-Chloro-N-(2-{4-[1-(4-chlorophenyl)ethyl]-1-piperazinyl}ethyl)-2-[2-(dimethylamino)-2-oxoethoxy]benzamide hydrochloride]	216 to 217
CCN(CC)C(=O)COc1cc(Cl)ccc1C(=O)NCCN1CCN(Cc2ccc(Cl)c(Cl)c2)CC1 (as salt: hydrochloride) [Example 10, dihydrochloride]	185 to 188
CN(C)C(=O)COc1cc(Cl)ccc1C(=O)N(C)CCN1CCN(Cc2ccc(Cl)c(Cl)c2)CC1 (as salt: hydrochloride) [Example 13, 4-Chloro-N-{2-[4-(3,4-dichlorobenzyl)-1-piperazinyl]ethyl}-2-[2-dimethylamino)-2-oxoethoxy]-N-methylbenzamide trihydrochloride]	252 to 253
CN(C)C(=O)COc1cc(Cl)ccc1C(=O)NCCN1CCN(C(c2ccccc2)c2ccccc2)CC1 (as salt: hydrochloride) [Example 14, N-[2-(4-Benzhydryl-1-piperazinyl)ethyl]-4-chloro-2-[2-(dimethylamino)-2-oxoethoxy]benzamide trihydrochloride]	228 to 229
CC1CN(Cc2ccc(Cl)c(Cl)c2)C(C)CN1CCNC(=O)c1ccc(Cl)cc1OCC(=O)N(C)C (stereo not drawn) (as salt: hydrochloride) [Example 16, E-4-Chloro-N-{2-[4-(3,4-dichlorobenzyl)-2,5-dimethyl-1-piperazinyl]ethyl}-2-[2-(dimethylamino)-2-oxoethoxy]benzamide dihydrochloride]	220 to 221
CN(C)C(=O)COc1cc(Cl)ccc1C(=O)NCCN1CCN(CCc2ccccc2)CC1 [Example 1, 4-Chloro-2-[2-(dimethylamino)-2-oxoethoxy]-N-[2-(4-phenethyl-1-piperazinyl)ethyl]benzamide]	159 to 160
O=C(O)COc1cc(Cl)ccc1C(=O)NCCN1CCN(Cc2ccc(Cl)c(Cl)c2)CC1 [Example 2, 2-{5-Chloro-2-[({2-[4-(3,4-dichlorobenzyl)-1-piperazinyl]ethyl}amino)carbonyl]phenoxy}acetic acid]	118 to 120
CC(CO)NC(=O)COc1cc(Cl)ccc1C(=O)NCCN1CCN(Cc2ccc(Cl)c(Cl)c2)CC1 (stereo not drawn) [Example 4, 4-Chloro-N-{2-[4-(3,4-dichlorobenzyl)-1-piperazinyl]ethyl}-2-{2-[(2-hydroxy-1-methylethyl)amino]-2-oxoethoxy}benzamide]	115 to 116
CC(C)(CO)NC(=O)COc1cc(Cl)ccc1C(=O)NCCN1CCN(Cc2ccc(Cl)c(Cl)c2)CC1 [Example 5, 4-Chloro-N-{2-[4-(3,4-dichlorobenzyl)-1-piperazinyl]ethyl}-2-{2[(2-hydroxy-1,1-dimethylethyl)amino]-2-oxoethoxy}benzamide]	77 to 78
CNC(=O)COc1cc(Cl)ccc1C(=O)NCCN1CCN(Cc2ccc(Cl)c(Cl)c2)CC1 [Example 6, 4-Chloro-N-{2-[4-(3,4-dichlorobenzyl)-1-piperazinyl]ethyl}-2-[2-(methylamino)-2-oxoethoxy]benzamide]	137 to 138
O=C(NCCN1CCN(Cc2ccc(Cl)c(Cl)c2)CC1)c1ccc(Cl)cc1OCC(=O)N1CCCC1 [Example 7, 4-Chloro-N-{2-[4-(3,4-dichlorobenzyl)-1-piperazinyl]ethyl}-2-[2-oxo-2-(1-pyrrolidinyl)ethoxy]benzamide]	157 to 158
NC(=O)COc1cc(Cl)ccc1C(=O)NCCN1CCN(Cc2ccc(Cl)c(Cl)c2)CC1 [Example 8, 2-(2-Amino-2-oxoethoxy)-4-chloro-N-{2-[4-(3,4-dichlorobenzyl)-1-piperazinyl]ethyl}benzamide]	120 to 122
O=C(O)CNC(=O)COc1cc(Cl)ccc1C(=O)NCCN1CCN(Cc2ccc(Cl)c(Cl)c2)CC1 [Example 12, 2-[(2-{5-Chloro-2-[({2-[4-(3,4-dichlorobenzyl)-1-piperazinyl]ethyl}amino)carbonyl]phenoxy}acetyl)amino]acetic acid]	214 to 216
